The nature of series [1]: Oral bioavailability in human. Type of series: ADME, organism-based. The conditions noted are these: in vivo.
Another series concerns Rattus norvegicus. Description: (§1) Oral bioavailability in rat. Type of series: ADME, organism-based. The following applies: in vivo.
Series [2] in a line: Fraction of the dose absorbed in rat. It counts as ADME, organism-based. The following applies: in vivo, read-out: Fabs.
Series [3] is described as follows: Apparent permeability across apical to basolateral side of MDCK cells. Type of series: ADME, cell-based, Canis lupus familiaris. The following applies: dog.
The nature of series [4]: as §1. It counts as ADME, organism-based. The conditions noted are these: in vivo.

As a reminder, the bioavailability is dose-corrected exposure relative to a reference, in per cent. Higher therefore signals much systemic uptake. Usually Papp A→B stands for how fast a substance crosses the layer from the apical side. `COCCCOc1cc(C[C@@H](C[C@H](N)[C@@H](O)C[C@H](C(=O)NCC(C)(C)C(N)=O)C(C)C)C(C)C)ccc1OC`: in series [1], the bioavailability is 3%. Besides, the F in the series with Rattus norvegicus was 0.1%. Further, the Fa in series [2] is 0.5%. In addition, the Papp A→B in series [3] was 1 ×10⁻⁶ cm/s.

Regarding `COC(=O)N[C@H](C(=O)N[C@@H](Cc1ccccc1)[C@@H](O)CN(Cc1ccc(-c2ccccn2)cc1)NC(=O)[C@@H](NC(=O)OC)C(C)(C)C)C(C)(C)C` [ATAZANAVIR], the bioavailability in series [1] was 60%; in series [4] it was 10%. Further, in series [2], the Fa was 54%. Besides, the Papp A→B in series [3] came to 35 ×10⁻⁶ cm/s.

For the origin of these results see ChEMBL document CHEMBL3217630, “Intramolecular hydrogen bonding to improve membrane permeability and absorption in beyond rule of five chemical space” (Medchemcomm, 2011).
